Results as given in ChEMBL document CHEMBL1201862, “PubChem BioAssay data set” (2004).
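Cultured in 96-well plates, cells were exposed to test compound for 48 hours across five concentrations. At the GI50, growth is halved.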 Active and inactive are the calls of the source. Rule as the data show it: active = GI50 up to about 1.1 µM and inactive = higher.

What was measured:
Assay in all cases: inhibition of tumour cell growth, NCI panel, 48 h
786-0 = test system: 786-0
A498 = test system: A498
A549 = test system: A549
ACHN = test system: ACHN
BT-549 = test system: BT-549
CAKI-1 = test system: CAKI-1
CCRF-CEM = test system: CCRF-CEM
COLO 205 = test system: COLO 205
DU-145 = test system: DU-145
EKVX = test system: EKVX
HCC 2998 = test system: HCC 2998
HCT-116 = test system: HCT-116
HCT-15 = test system: HCT-15
HL-60 = test system: HL-60
HOP-62 = test system: HOP-62
HT-29 = test system: HT-29
Hs-578T = test system: Hs-578T
IGROV-1 = test system: IGROV-1
K562 = test system: K562
KM12 = test system: KM12
M14 = test system: M14
MCF7 = test system: MCF7
MDA-MB-231 = test system: MDA-MB-231
MDA-N = test system: MDA-N
MOLT-4 = test system: MOLT-4
Malme-3M = test system: Malme-3M
NCI-H226 = test system: NCI-H226
NCI-H23 = test system: NCI-H23
NCI-H460 = test system: NCI-H460
NCI-H522 = test system: NCI-H522
NCI/ADR-RES = test system: NCI/ADR-RES
OVCAR-3 = test system: OVCAR-3
OVCAR-4 = test system: OVCAR-4
OVCAR-5 = test system: OVCAR-5
OVCAR-8 = test system: OVCAR-8
PC-3 = test system: PC-3
SF-268 = test system: SF-268
SF-295 = test system: SF-295
SF-539 = test system: SF-539
SK-MEL-28 = test system: SK-MEL-28
SK-MEL-5 = test system: SK-MEL-5
SK-OV-3 = test system: SK-OV-3
SN12C = test system: SN12C
SNB-19 = test system: SNB-19
SNB-75 = test system: SNB-75
SR = test system: SR
SW-620 = test system: SW-620
T47D = test system: T47D
TK-10 = test system: TK-10
U-251 = test system: U-251
UACC-257 = test system: UACC-257
UACC-62 = test system: UACC-62
UO-31 = test system: UO-31
HOP-92 = test system: HOP-92
LOX IMVI = test system: LOX IMVI
MDA-MB-435 = test system: MDA-MB-435
RPMI-8226 = test system: RPMI-8226
RXF 393 = test system: RXF 393
SK-MEL-2 = test system: SK-MEL-2

FC(F)(F)c1cccc(COCCN2CCN(Cc3cccc(C(F)(F)F)c3)CC2)c1
GI50 (786-0): 15.3 µM (inactive) | GI50 (A498): 14.9 µM (inactive) | GI50 (A549): 16.2 µM (inactive) | GI50 (ACHN): 15.7 µM (inactive) | GI50 (BT-549): 15.6 µM (inactive) | GI50 (CAKI-1): 17.5 µM (inactive) | GI50 (CCRF-CEM): 14.1 µM (inactive) | GI50 (COLO 205): 15.7 µM (inactive) | GI50 (DU-145): 17 µM (inactive) | GI50 (EKVX): 11.1 µM (inactive) | GI50 (HCC 2998): 17 µM (inactive) | GI50 (HCT-116): 14.4 µM (inactive) | GI50 (HCT-15): 16.2 µM | GI50 (HL-60): 36.6 µM (inactive) | GI50 (HOP-62): 20 µM (inactive) | GI50 (HT-29): 21.7 µM (inactive) | GI50 (Hs-578T): 19.5 µM (inactive) | GI50 (IGROV-1): 15.6 µM (inactive) | GI50 (K562): 11.8 µM (inactive) | GI50 (KM12): 18.1 µM (inactive) | GI50 (M14): 30.1 µM (inactive) | GI50 (MCF7): 15.7 µM (inactive) | GI50 (MDA-MB-231): 19.3 µM (inactive) | GI50 (MDA-N): 15.9 µM (inactive) | GI50 (MOLT-4): 7.91 µM (inactive) | GI50 (Malme-3M): 8.09 µM (inactive) | GI50 (NCI-H226): 17 µM (inactive) | GI50 (NCI-H23): 17.9 µM (inactive) | GI50 (NCI-H460): 16.3 µM (inactive) | GI50 (NCI-H522): 13 µM (inactive) | GI50 (NCI/ADR-RES): 18.6 µM (inactive) | GI50 (OVCAR-3): 20 µM (inactive) | GI50 (OVCAR-4): 17.7 µM (inactive) | GI50 (OVCAR-5): 16.7 µM (inactive) | GI50 (OVCAR-8): 18.7 µM (inactive) | GI50 (PC-3): 9.33 µM (inactive) | GI50 (SF-268): 15.3 µM (inactive) | GI50 (SF-295): 19.7 µM (inactive) | GI50 (SF-539): 18 µM (inactive) | GI50 (SK-MEL-28): 17.8 µM (inactive) | GI50 (SK-MEL-5): 15.8 µM (inactive) | GI50 (SK-OV-3): 17.3 µM (inactive) | GI50 (SN12C): 18.5 µM (inactive) | GI50 (SNB-19): 15.6 µM (inactive) | GI50 (SNB-75): 13.5 µM (inactive) | GI50 (SR): 23.4 µM (inactive) | GI50 (SW-620): 13.1 µM (inactive) | GI50 (T47D): 16.3 µM (inactive) | GI50 (TK-10): 13.7 µM (inactive) | GI50 (U-251): 18.1 µM (inactive) | GI50 (UACC-257): 17.4 µM (inactive) | GI50 (UACC-62): 15.3 µM (inactive) | GI50 (UO-31): 12.3 µM (inactive)

O=C1/C(=C\c2cccc(Oc3ccccc3)c2)SC(c2ccccc2)N1c1ccccc1 (centres undefined)
GI50 (786-0): > 100 µM (inactive) | GI50 (A498): > 100 µM (inactive) | GI50 (A549): > 100 µM (inactive) | GI50 (ACHN): > 100 µM (inactive) | GI50 (BT-549): > 100 µM (inactive) | GI50 (CAKI-1): > 100 µM (inactive) | GI50 (CCRF-CEM): 22 µM (inactive) | GI50 (COLO 205): > 100 µM (inactive) | GI50 (DU-145): > 100 µM (inactive) | GI50 (EKVX): 57 µM (inactive) | GI50 (HCC 2998): > 100 µM (inactive) | GI50 (HCT-116): 20.1 µM (inactive) | GI50 (HCT-15): 77.3 µM | GI50 (HL-60): 46.8 µM (inactive) | GI50 (HOP-62): > 100 µM (inactive) | GI50 (HOP-92): 60.7 µM (inactive) | GI50 (HT-29): 26.4 µM (inactive) | GI50 (Hs-578T): > 100 µM (inactive) | GI50 (K562): 23.3 µM (inactive) | GI50 (KM12): 46.9 µM (inactive) | GI50 (LOX IMVI): 31.9 µM (inactive) | GI50 (M14): 71.6 µM (inactive) | GI50 (MCF7): 30 µM (inactive) | GI50 (MDA-MB-231): > 100 µM (inactive) | GI50 (MDA-MB-435): 33.7 µM (inactive) | GI50 (MDA-N): 30.1 µM (inactive) | GI50 (MOLT-4): 23.2 µM (inactive) | GI50 (Malme-3M): > 100 µM (inactive) | GI50 (NCI-H226): > 100 µM (inactive) | GI50 (NCI-H23): 92.5 µM (inactive) | GI50 (NCI-H460): > 100 µM (inactive) | GI50 (NCI-H522): 17.1 µM (inactive) | GI50 (NCI/ADR-RES): 75.3 µM (inactive) | GI50 (OVCAR-3): 95.7 µM (inactive) | GI50 (OVCAR-4): 75.2 µM (inactive) | GI50 (OVCAR-5): > 100 µM (inactive) | GI50 (OVCAR-8): 42.2 µM (inactive) | GI50 (RPMI-8226): 14.8 µM (inactive) | GI50 (RXF 393): 69.5 µM (inactive) | GI50 (SF-268): > 100 µM (inactive) | GI50 (SF-295): > 100 µM (inactive) | GI50 (SF-539): 26.5 µM (inactive) | GI50 (SK-MEL-28): 81.1 µM (inactive) | GI50 (SK-MEL-2): > 100 µM (inactive) | GI50 (SK-MEL-5): 27.1 µM (inactive) | GI50 (SK-OV-3): > 100 µM (inactive) | GI50 (SN12C): > 100 µM (inactive) | GI50 (SNB-19): 58.1 µM (inactive) | GI50 (SR): 11.9 µM (inactive) | GI50 (SW-620): 12.4 µM (inactive) | GI50 (T47D): 52.5 µM (inactive) | GI50 (TK-10): > 100 µM (inactive) | GI50 (U-251): 25.1 µM (inactive) | GI50 (UACC-257): 52.1 µM (inactive) | GI50 (UACC-62): 43.3 µM (inactive) | GI50 (UO-31): > 100 µM (inactive)
